Results taken from PubChem BioAssay AID2305 (GlaxoSmithKline (GSK), 2010).
Several values for one entry are separate records, joined by “and”; a condition that tells them apart may be missing. Equal entries are not always repeated. Where a SMILES comes first, the peptide text is derived from it.

Each molecule was assayed on P. falciparum 3D7 growth, pLDH absorbance (assay: P. falciparum 3D7 growth inhibition, dose response, strain 3D7 (AID 2305)).

SMILES	IC50
O=C(N[C@H]1CCN(Cc2ccc(OC3CCN(Cc4ccccc4)CC3)c(Br)c2)C1)c1ccc(Cl)c(Cl)c1	780 nM
O=C(Nc1cccc(CN2CCCN(Cc3ccc(O)cc3)CC2)c1)c1ccc2ccccc2n1	940 nM
CCc1cn2c3c(cc(C(=O)N[C@@H](Cc4ccccc4)[C@H](O)CNC4CCOCC4)cc13)N(C)S(=O)(=O)C2	90 nM
O=C(NCC(=O)N1CCC[C@H]1C(=O)O)[C@@H](Cc1ccccc1)NC(=O)[C@@H]1CCCN1C(=O)CCCc1ccc(O)cc1 (HELM PEPTIDE1{[O=C(CCCc1ccc(O)cc1)[*:2]].P.[dF].G.P}$$$$V2.0)	1050 nM
Cc1cccc2[nH]c(-c3ccc(-c4ccc(CN5CCN(C6CCN(C)CC6)CC5)cc4)cc3)nc12	100 nM
Cc1cc(N[C@@H](CC(C)C)C(=O)NCc2cccc(F)c2)nc(Nc2ccccc2)n1	1090 nM
CCc1ccc2c(c1O)CCN(C)C2Cc1ccccc1Cl (centres undefined)	250 nM
Cc1ccc(NC(=O)c2cc(S(=O)(=O)NC(C)(C)C)ccc2C)nc1	760 nM
CCCCn1c(C)c(C(=O)OCC)c2cc(OC(C)=O)c(Br)cc21	630 nM
O=C(Nc1ccc(F)cc1)NC1CCN(c2ccnc3ccccc23)C1 (centres undefined)	870 nM
CCCNCc1ccc(-c2ccc(CN(Cc3cnc(C)cn3)C(=O)c3nn(-c4ccccc4)nc3C)cc2)nc1	420 nM
Cc1cc(N[C@@H](Cc2ccccc2)C(=O)Nc2ccccc2)nc(Nc2ccccc2)n1	1010 nM
CC1CCC(C[C@@H](C(=O)N[C@@H](CCC(=O)N2CCCCC2)C(=O)Nc2nccs2)[C@H](C(C)C)N(O)C=O)CC1 (some centres undefined)	620 nM
Cc1noc(-c2ccc3c(c2)CCN(CCC2CCC(NC(=O)c4cc5ccccc5[nH]4)CC2)CC3)n1 (centres undefined)	690 nM
COc1ccccc1NC(=O)Nc1cccc(-c2cccc(-c3nc4ccc(C(F)(F)F)cc4[nH]3)c2)c1	120 nM
O=C(Nc1ccc(Cl)cc1)NC1CCN(CCCCCNC(=O)[C@@H]2C[C@H]2c2ccc(Cl)c(Cl)c2)CC1	580 nM
Cc1ncccc1C(=O)Nc1cccc(-c2cccc(-c3nc4c(C)cccc4[nH]3)c2)c1	960 nM
Cc1cc(O)c2c(c1)OC(C)(C)C=C2C1=CCN(Cc2ccccc2)CC1	790 nM
Cc1ccc(O)cc1Nc1ccnc2cc(-c3ccccn3)ccc12	760 nM
CC(C)NCc1ccc(-c2ccc(-c3nc4ccc(C(F)(F)F)cc4[nH]3)cc2)cc1	270 nM
N#Cc1cccc(NC(=O)c2ccc(S(=O)(=O)NCC3CCCN3CC3CCCCC3)cc2)c1 (centres undefined)	1050 nM
c1ccc2c(c1)CN(CC1CCOCC1)CC1(CCN(Cc3c[nH]c4cnccc34)CC1)O2	1550 nM
CC(C)c1ccc2c(c1)C(=O)c1ccc(C(=O)O)cc1S2(=O)=O	470 nM

SMILES	IC50
COc1cc(NCCCNCc2cn(Cc3cc(Br)cc(Br)c3)c3ccccc23)nc2ccccc12	180 nM
Cc1ccccc1-c1cc(=O)c2cc(NC(=O)c3cccs3)ccc2o1	220 nM
O=C(Nc1cccc(CN2CCCN(Cc3ccc4c(c3)OCO4)CC2)c1)c1ccc2ccccc2c1	1050 nM
CN(C)CCNCc1cccc(-c2ccc3c(Nc4ccc(Oc5ccccc5)cc4)ccnc3c2)c1	440 nM
CCCCN(CCCC)C(=NCCCCCCN=C(NC(N)=NCc1ccc(Cl)c(Cl)c1)N(CCCC)CCCC)NC(N)=NCc1ccc(Cl)c(Cl)c1	400 nM
CN(C)c1cc(NN=Cc2cc(Cl)ccc2O)nc(N(C)C)n1	700 nM
CCCCCc1cc(O)c2c(c1)OC(C)(C)CC2C1=CCN(Cc2ccccc2)CC1 (centres undefined)	770 nM
CC1CCC(NCc2ccc3c(CNC4CCC(C)CC4)c(O)ccc3c2O)CC1 (centres undefined)	120 nM
CN1CCN(CC(=O)Nc2ccc(-c3ccc(-c4nc5ccc(C(F)(F)F)cc5[nH]4)cc3)cc2)CC1	420 nM
N#Cc1ccc(CN2CCC(Oc3ccc(NC(=O)c4ccsc4)cc3Cl)C2)cc1 (centres undefined)	670 nM
CCCCN(C(=O)c1ccccc1Cl)c1nnc(-c2ccccc2C)s1	1020 nM
Cc1cccc2[nH]c(-c3cccc(-c4cccc(CNCc5ccccc5)c4)c3)nc12	390 nM
CN(Cc1ccccc1)C1CCN(CCc2c[nH]c3ccc(F)cc23)CC1	600 nM
COC(=O)c1cccc(CNCc2cccc(-c3ccc(-c4nc5ccccc5[nH]4)cc3)c2)c1	350 nM
O=C(COc1ccccc1Cc1ccccc1)Nc1cc(Cl)ccc1-n1cncn1	640 nM
N#Cc1ccccc1C1CCN(C2CCC(Nc3cc(-c4cccnc4)ccn3)CC2)CC1 (centres undefined)	960 nM
Cc1cc(NN=Cc2cccc(F)c2)c2cccc(C)c2n1	770 nM
CCC(CC)CN1C(=O)C(C)(c2ccccc2)N=C1N (centres undefined)	1060 nM
Cc1cccc2[nH]c(-c3cccc(-c4cccc(NC(=O)c5ccc(=O)[nH]n5)c4)c3)nc12	790 nM
CCCCC(CC)C(=O)C(NC(=O)[C@H](CSC(c1ccccc1)(c1ccccc1)c1ccccc1)NC(=O)OC(C)(C)C)C(=O)OC (some centres undefined)	1020 nM
CC1CCCN1Cc1cccc(-c2ccc(C(=O)NCCOc3ccccc3)s2)c1 (centres undefined)	930 nM
Cc1cc(-c2cnc(N)c(-c3ccc(N4CCN(C)CC4)nc3)c2)cc(C)c1O	1400 nM
Cc1[nH]c(C)c(-c2ccc(CCc3ccc(F)cc3F)cc2)c(=O)c1Br	10 nM

SMILES	IC50
O=C(N[C@@H](CC1CCCCC1)C(=O)NC1CCCc2ccccc21)c1ccc(O)c(-c2cccc([N+](=O)[O-])c2)c1 (some centres undefined)	610 nM
CCN1CCC(N2CCC(C(=O)Nc3cccc(-c4cccc(Cl)c4)c3)CC2)CC1	1080 nM
Cc1cccc(CN2CCCN(Cc3cccc(C(=O)Nc4ccc(C(C)(C)C)cc4)c3)CC2)c1	930 nM
O=S(=O)(NCCN1CCCC1)c1ccc(-c2ccc(CNCc3ccc(F)cc3)cc2)s1	840 nM
CCN(CCCN1CCCCC1)c1cc(C)nc(Nc2cccc3c2CCCC3)n1	1030 nM
CCOC(=O)c1cc(C(=O)NCCCCN2CCC(c3ccc4c(c3OC)CCCC4)CC2)ccc1-c1ccc(C(F)(F)F)cc1	710 nM
Cc1ccc(C(=O)NC2C(=O)NC2c2ccccc2)c(C)c1 (centres undefined)	950 nM
CCCCCCNc1c2ccccc2nc2ccccc12	950 nM
CCCC(=O)NC(c1ccc(C(C)C)cc1)c1ccc2cccnc2c1O (centres undefined)	930 nM
CCCCCCN1CCN(Cc2cccc(NC(=O)c3cccc(OCC)c3)c2)CC1	1110 nM
CCCCCCCc1[nH]c2ccccc2c(=O)c1C	510 nM
O=C(/C=C/c1ccc(Cl)c(Cl)c1)NC1CCC(CN2CCC(c3c[nH]c4ccc(O)cc34)CC2)CC1 (centres undefined)	140 nM and 420 nM
Cc1cc(N2C(N)=NC(N)=NC2(C)C)ccc1Cl	20 nM
CCCCN(C)CC#Cc1ccc(-c2ccc3[nH]c(C)c(Br)c(=O)c3c2)cn1	650 nM
COc1ccc(CNCc2ccc(-c3cccc(-c4nc5ccccc5[nH]4)c3)cc2)cc1	210 nM
O=C(Nc1ccc(-c2csc(-c3nc4ccccc4[nH]3)c2)cc1)Nc1ccc(Cl)c(Cl)c1	400 nM
CCCCCCN1CCC(NCc2ccc(CN(C)C)cc2)CC1	1270 nM
O=C(/C=C/c1ccc(Cl)c(Cl)c1)NCCCCCCN1CCN(C(=O)Nc2ccc(Cl)c(C(F)(F)F)c2)CC1	530 nM
O=C(/C=C/c1ccc(C(F)(F)F)cc1)NCCCCCN1CCCN(C(=O)Nc2ccc(Cl)c(Cl)c2)CC1	420 nM
Cc1cc(CN2CCC(Nc3ncc(-c4ccsc4)c4nc(C(F)(F)F)ccc34)CC2)no1	1100 nM
O=C(Nc1cccc(OCc2ccccc2)c1)c1ccc(CN2CCC(Cc3ccccc3)CC2)cc1	850 nM
NCCNS(=O)(=O)c1ccc(-c2ccnc3[nH]c(-c4ccncc4)cc23)cc1	840 nM
OCC1CCN(Cc2cccc(-c3ccc(-c4nc5ccc(C(F)(F)F)cc5[nH]4)s3)c2)CC1	590 nM
